Activity calls are given as the source filed them. The rule behind the calls is not given here.
What was measured:
[1] = Stability in human Caco-2 cells homogenate assessed as half life measured up to 12 hrs by HPLC analysis; type: ADME, cell-based; details: Caco-2 cell homogenate
[2] = Cmax in DSS-induced colitis C57BL/6 mouse model at 25 mg/kg, po measured up to 6 hrs by UPLC-MS/MS analysis; type: ADME, organism-based; design: route oral, dose 25 mg/kg, time <=6; details: in vivo
[3] = Metabolic stability in healthy C57BL/6 mouse colon assessed as half life measured up to 12 hrs by HPLC analysis; type: ADME, tissue-based
[4] = target: T1, Solute carrier family 15 member 1 (Homo sapiens, UniProt P46059); assay: Substrate activity at PEPT1 in human Caco-2 cells assessed as inhibition of Gly-Sar substrate uptake by UPLC-MS/MS analysis; type: cell-based; details: for inhibition (INH): human, caco-2
T1 sequence (P46059 whole entry): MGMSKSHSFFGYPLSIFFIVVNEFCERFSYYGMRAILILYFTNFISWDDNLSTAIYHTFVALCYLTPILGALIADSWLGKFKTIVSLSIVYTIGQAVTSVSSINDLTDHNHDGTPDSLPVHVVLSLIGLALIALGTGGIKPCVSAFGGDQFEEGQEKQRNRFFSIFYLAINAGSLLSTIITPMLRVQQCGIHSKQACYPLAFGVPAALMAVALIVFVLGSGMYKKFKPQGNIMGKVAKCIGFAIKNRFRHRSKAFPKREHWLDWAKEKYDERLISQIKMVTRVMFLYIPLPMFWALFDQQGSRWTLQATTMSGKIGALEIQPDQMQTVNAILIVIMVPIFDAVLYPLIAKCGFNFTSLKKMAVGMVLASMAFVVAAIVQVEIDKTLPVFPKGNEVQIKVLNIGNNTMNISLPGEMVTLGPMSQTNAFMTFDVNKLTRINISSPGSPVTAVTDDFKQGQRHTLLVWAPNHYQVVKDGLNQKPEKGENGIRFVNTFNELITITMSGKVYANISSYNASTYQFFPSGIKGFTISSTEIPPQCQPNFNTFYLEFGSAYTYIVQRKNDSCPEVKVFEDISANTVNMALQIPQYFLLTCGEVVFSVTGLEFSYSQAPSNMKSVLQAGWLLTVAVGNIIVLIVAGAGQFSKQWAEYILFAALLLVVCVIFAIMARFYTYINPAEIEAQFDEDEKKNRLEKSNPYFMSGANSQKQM

[5] = Metabolic stability in healthy C57BL/6 mouse plasma assessed as half life measured up to 12 hrs by HPLC analysis; type: ADME, cell-free
[6] = Chemical stability in phosphate buffer at pH 6.8 assessed as half life measured up to 12 hrs by HPLC analysis; type: physicochemical
[7] = Chemical stability in phosphate buffer at pH 7.2 assessed as half life measured up to 12 hrs by HPLC analysis; type: physicochemical
[8] = Chemical stability in 0.1 M HCl at pH 1.2 assessed as half life measured up to 12 hrs by HPLC analysis; type: physicochemical
[9] = Tmax in DSS-induced colitis C57BL/6 mouse model at 25 mg/kg, po measured up to 6 hrs by UPLC-MS/MS analysis; type: ADME, organism-based; details: in vivo
[10] = Metabolic stability in healthy C57BL/6 mouse liver assessed as half life measured up to 12 hrs by HPLC analysis; type: ADME, tissue-based
[11] = Metabolic stability in DSS-induced C57BL/6 mouse jejunum assessed as half life measured up to 12 hrs by HPLC analysis; type: ADME, tissue-based
[12] = Stability in simulated gastric fluid at pH 1.2 assessed as half life measured up to 12 hrs by HPLC analysis; type: ADME
[13] = AUC (0 to 6 hrs) in DSS-induced colitis C57BL/6 mouse model at 25 mg/kg, po measured up to 6 hrs by UPLC-MS/MS analysis; type: ADME, organism-based; design: route oral, dose 25 mg/kg, time <=6; details: in vivo
[14] = Chemical stability in acetate buffer at pH 4.5 assessed as half life measured up to 12 hrs by HPLC analysis; type: physicochemical
[15] = system: Mus musculus; assay: Anti-colitis activity against DSS-induced colitis in C57BL/6 mouse model assessed as assessed as recovery of body weight at 25 mg/kg, po administered via gavage twice daily for 10 days; type: functional, organism-based; details: time 10.0 day
[16] = Metabolic stability in DSS-induced C57BL/6 mouse colon assessed as half life measured up to 12 hrs by HPLC analysis; type: ADME, tissue-based
[17] = Metabolic stability in healthy C57BL/6 mouse colonic flora homogenate assessed as half life measured up to 12 hrs by HPLC analysis; type: ADME
[18] = Metabolic stability in DSS-induced C57BL/6 inflammatory mouse model colonic flora homogenate assessed as half life measured up to 12 hrs by HPLC analysis; type: ADME; details: C57BL/6, mouse
[19] = Metabolic stability in healthy C57BL/6 mouse jejunum assessed as half life measured up to 12 hrs by HPLC analysis; type: ADME, tissue-based
[20] = system: Mus musculus; assay: Anti-colitis activity against DSS-induced colitis in C57BL/6 mouse model assessed as increase in colon length at 25 mg/kg, po administered via gavage twice daily for 10 days; type: functional, organism-based; details: time 10.0 day
[21] = Stability in simulated intestinal fluid at pH 6.8 assessed as half life measured up to 12 hrs by HPLC analysis; type: ADME
[22] = target: T1, Solute carrier family 15 member 1; assay: Substrate activity at PEPT1 in human Caco-2 cells assessed as fold reduction in drug uptake in presence of Gly-Sar by UPLC-MS/MS analysis relative to its enantiomers; type: ADME, cell-based
[23] = Apparent permeability across apical to basolateral side in human Caco-2 cells assessed as fold increase in permeability at 0.5 mM measured up to 60 mins by UPLC-MS/MS analysis relative to its enantiomers; type: ADME, cell-based; details: caco-2, 1 h, 500 µM
[24] = target: T1, Solute carrier family 15 member 1; assay: Substrate activity at PEPT1 in human Caco-2 cells assessed as fold increase in drug uptake by UPLC-MS/MS analysis relative to its enantiomers; type: ADME, cell-based
[25] = system: Jejunum; assay: Effective permeability in Sprague-Dawley rat jejunum assessed as fold increase in permeability at 5 mM measured up to 60 mins by HPLC analysis relative to its enantiomers; type: ADME, tissue-based; details: 1 h, 5000 µM
[26] = target: T2, Solute carrier family 15 member 1 (Rattus norvegicus, UniProt P51574); assay: Substrate activity in PEPT1 in Sprague-Dawley rat jejunum assessed as fold increase in effective permeability at 5 mM measured up to 60 mins in presence of Gly-Sar by HPLC analysis relative to its enantiomers; type: ADME, tissue-based; details: 1 h, 5000 µM
T2 sequence (P51574 whole entry): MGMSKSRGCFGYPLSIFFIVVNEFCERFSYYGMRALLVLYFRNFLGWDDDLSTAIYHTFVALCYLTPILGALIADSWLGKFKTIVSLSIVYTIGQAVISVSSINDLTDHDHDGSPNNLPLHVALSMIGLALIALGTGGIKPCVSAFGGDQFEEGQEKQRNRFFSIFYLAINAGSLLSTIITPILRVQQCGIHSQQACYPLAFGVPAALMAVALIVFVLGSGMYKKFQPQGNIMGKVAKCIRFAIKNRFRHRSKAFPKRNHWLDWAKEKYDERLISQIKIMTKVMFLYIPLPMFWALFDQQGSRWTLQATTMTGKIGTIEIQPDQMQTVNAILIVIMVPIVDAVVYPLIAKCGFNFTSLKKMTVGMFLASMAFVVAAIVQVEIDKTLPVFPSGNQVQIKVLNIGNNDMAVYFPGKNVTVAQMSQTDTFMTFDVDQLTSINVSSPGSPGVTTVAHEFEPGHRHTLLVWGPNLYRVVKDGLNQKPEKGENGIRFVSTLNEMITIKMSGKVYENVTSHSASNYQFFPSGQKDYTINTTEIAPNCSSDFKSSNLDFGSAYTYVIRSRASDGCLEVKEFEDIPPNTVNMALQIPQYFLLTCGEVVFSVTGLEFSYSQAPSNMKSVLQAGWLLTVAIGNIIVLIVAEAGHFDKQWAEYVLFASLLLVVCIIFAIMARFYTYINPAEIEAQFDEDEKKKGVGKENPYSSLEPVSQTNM

[27] = system: Mus musculus; assay: Anti-colitis activity against DSS-induced colitis in C57BL/6 mouse model assessed as fold decrease in disease activity index at 25 mg/kg, po administered via gavage twice daily for 10 days relative to control; type: functional; details: time 10 day

SMILES | half-life [1] [h] | Cmax [2] [µM] | half-life [3] [h] | half-life [5] [h] | half-life [6] [h] | half-life [7] [h] | half-life [8] [h] | Tmax [9] [h] | half-life [10] [h] | half-life [11] [h] | half-life [12] [h] | AUC [13] [microM/L.hr] | half-life [14] [h] | Activity [15] | half-life [16] [h] | half-life [17] [h] | half-life [18] [h] | half-life [19] [h] | Activity [20] | half-life [21] [h] | further results
O=C(O)[C@H](CO)NC(=O)[C@H]1C[C@@H](O)CN1 | > 12 | 22.7 | > 12 | > 12 | > 12 | > 12 | > 12 | 4 | > 12 | > 12 | > 12 | 44.55 | > 12 | inactive | > 12 | > 12 | > 12 | > 12 | inactive | > 12 | inhibition (INH) [4]: Not Active
O=C(O)[C@H](CO)NC(=O)[C@H]1C[C@H](O)CN1 | > 12 | 4.01 | > 12 | > 12 | > 12 | > 12 | > 12 | 2 | > 12 | > 12 | > 12 | 8.55 | > 12 | inactive | > 12 | > 12 | > 12 | > 12 | inactive | > 12 | IC50 [4]: 9.6 mM; fold change (FC) [22]: 3.4; fold change (FC) [23]: 6.3; fold change (FC) [24]: 3.3; fold change (FC) [25]: 7.3; fold change (FC) [26]: 6.2
O=C(N[C@H](CO)C(=O)O)[C@@H]1C[C@H](O)CN1 | > 12 | 22.1 | > 12 | > 12 | > 12 | > 12 | > 12 | 4 | > 12 | > 12 | > 12 | 49.92 | > 12 | inactive | > 12 | > 12 | > 12 | > 12 | inactive | > 12 | inhibition (INH) [4]: Not Active
O=C(O)[C@H](CO)NC(=O)[C@@H]1C[C@H](O)CN1 | > 12 | 1.05 | > 12 | > 12 | > 12 | > 12 | > 12 | 2 | 0.51 | 0.35 | > 12 | 1.62 | > 12 | inactive | > 12 | 1.22 | 1.15 | 0.39 | inactive | > 12 | IC50 [4]: 9.8 mM; fold change (FC) [22]: 3.4; fold change (FC) [23]: 6.3; fold change (FC) [24]: 3.3; fold change (FC) [25]: 7.3; fold change (FC) [26]: 4
O=C(O)[C@@H](CO)NC(=O)[C@H]1C[C@H](O)CN1 | > 12 | 22.9 | > 12 | > 12 | > 12 | > 12 | > 12 | 4 | > 12 | > 12 | > 12 | 50.73 | > 12 | Active | > 12 | > 12 | > 12 | > 12 | Active | > 12 | inhibition (INH) [4]: Not Active; fold change (FC) [24]: 3.3; fold change (FC) [27]: 1.5

— ChEMBL document CHEMBL5046231, “Modulation of Naturally Occurring Linear Dipeptide Chirality to Reduce the Affinity for Oligopeptide Transporter 1 and Increase Intestinal Stability for an Enhanced Colon-Targeting Effect in the Treatment of Inflammatory Bowel Disease: An Application of trans-4-l-Hydroxyprolyl-l-serine” (J Med Chem, 2022)
